{
  "source": "paper PMC7591920",
  "about": "“A protein tertiary structure mimetic modulator of the Hippo signalling pathway” (Nature Communications, 2020)",
  "biological_target": "T1, mTEAD4 (Mus musculus, UniProt Q62296)",
  "T1 construct": "Mouse TEAD4(210–427) cDNA fused with a 6x His-tag and a 3C protease cleavage site; 6x His-tag; 3C protease cleavage site; made in house; host or cells: E. coli BL21 DE3 RIL(K+)",
  "T1 sequence (Q62296 210-427)": "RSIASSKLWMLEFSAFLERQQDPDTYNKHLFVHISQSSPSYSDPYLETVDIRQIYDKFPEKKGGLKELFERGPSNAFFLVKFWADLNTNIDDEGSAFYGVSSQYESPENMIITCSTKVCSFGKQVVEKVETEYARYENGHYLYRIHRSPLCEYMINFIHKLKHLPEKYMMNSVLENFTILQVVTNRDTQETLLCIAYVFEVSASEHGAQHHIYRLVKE",
  "assay": "SPR binding to immobilised mTEAD4",
  "settings": "mTEAD4 amine-coupled on CM5, multi-cycle, steady-state fit 1:1 model, 10 mM HEPES 150 mM NaCl 0.05% Tween-20 pH 7.4, 0.3% DMSO, 20 °C, Fig. 1 values n = 1 replicate",
  "protocol": "Sensor chips Series S CM5 (Research grade) were obtained from GE Healthcare. Prior to use, the sensor chips were equilibrated at room temperature for 15 min to prevent water condensation on the detector side of the sensor chip surface. A running buffer was prepared composed of 10 mM HEPES, 150 mM NaCl, and 0.05% (w/v) Tween-20, pH 7.4, and the system was equilibrated at 20 °C using a flow rate of 30 µL min^−1 after docking of the sensor chip. Ligand binding experiments have been performed applying the concept of multi-cycle kinetics. A contact time of 45 s was selected, followed by a 6-min dissociation phase to allow for complete dissociation of the analyte prior to the next cycle. […] Typically, seven concentrations of the analytes have been examined applying a threefold dilution pattern with 30 µM as top concentration. For the analysis, five running buffer blanks were injected to equilibrate the instrument. […] The carboxyl-dextran surface was activated for 7 min with 0.05 M NHS and 0.2 M EDC, followed by an injection of the proteins in 10 mM MES pH 6.4 at a concentration of 30–50 µg mL^−1. […] This was followed by a deactivation of the residual esters by injecting a solution of 0.5 M ethanolamine pH 8.0 for 7 min before engaging in ligand binding experiments. Reference surfaces were prepared accordingly, omitting the injection of protein over the activated reference surface.",
  "note": "Bridge positions count the residues as written; N and C are the ends. Square brackets hold non-standard residues; d marks the D form. Peptide text beside a SMILES is read from it. Orn = NCCC[C@H](N)C(=O)O; Dab = NCC[C@H](N)C(=O)O",
  "data": [
    {"smiles": "CC[C@H](C)[C@@H]1NC(=O)[C@H](CCC(N)=O)NC(=O)[C@H](CC(C)C)NC(=O)[C@H](Cc2c[nH]c3ccccc23)NC(=O)[C@H]([C@@H](C)O)NC(=O)[C@H](CC(=O)O)NC(=O)CNC(=O)[C@H](CC(C)C)NC(=O)[C@H](C)NC(=O)[C@H](CCCCN)NC(=O)[C@H](C)NC(=O)[C@H](Cc2ccccc2)NC(=O)[C@H](Cc2c[nH]cn2)NC(=O)[C@H](CC(=O)O)NC(=O)[C@@H](NC(=O)[C@@H](NC(=O)[C@H](CO)NC(C)=O)C(C)C)CC(=O)NCCC[C@@H](C(=O)N[C@@H](C)C(=O)N[C@@H](C)C(N)=O)NC1=O", "note": "[4B] (Ac-SVDDHFAKALGDTWLQI[Orn]AA-NH2; lactam 3-18)", "values": [
      {"measurement": "Kd", "value": 11, "unit": "µM"}
    ]},
    {"smiles": "CC[C@H](C)[C@@H]1NC(=O)[C@H](CCC(N)=O)NC(=O)[C@H](CC(C)C)NC(=O)[C@H](Cc2c[nH]c3ccccc23)NC(=O)[C@H]([C@@H](C)O)NC(=O)[C@H](CC(=O)O)NC(=O)CNC(=O)[C@H](CC(C)C)NC(=O)[C@H](C)NC(=O)[C@H](CCCCN)NC(=O)[C@H](C)NC(=O)[C@H](Cc2ccccc2)NC(=O)[C@H](Cc2c[nH]cn2)NC(=O)[C@H](CC(=O)O)NC(=O)[C@@H](NC(=O)[C@H](C)NC(=O)[C@H](CO)NC(C)=O)CCC(=O)NCCCC[C@@H](C(=O)N[C@@H](C)C(=O)N[C@@H](C)C(N)=O)NC1=O", "note": "[compound 15] (Ac-SAEDHFAKALGDTWLQIKAA-NH2; lactam 3-18)", "values": [
      {"measurement": "Kd", "value": "1.5 ± 0.37", "unit": "µM"}
    ]},
    {"smiles": "CC[C@H](C)[C@@H]1NC(=O)[C@H](CCC(N)=O)NC(=O)[C@H](CC(C)C)NC(=O)[C@H](Cc2c[nH]c3ccccc23)NC(=O)[C@H]([C@@H](C)O)NC(=O)[C@H](CC(=O)O)NC(=O)CNC(=O)[C@H](CC(C)C)NC(=O)[C@H](C)NC(=O)[C@H](CCCCN)NC(=O)[C@H](C)NC(=O)[C@H](Cc2ccccc2)NC(=O)[C@H](Cc2c[nH]cn2)NC(=O)[C@H](CC(=O)O)NC(=O)[C@@H](NC(=O)[C@@H](NC(=O)[C@H](CO)NC(C)=O)C(C)C)CC(=O)NCCCC[C@@H](C(=O)N[C@@H](C)C(=O)N[C@@H](C)C(N)=O)NC1=O", "note": "[4C] (Ac-SVDDHFAKALGDTWLQIKAA-NH2; lactam 3-18)", "values": [
      {"measurement": "Kd", "value": 3.2, "unit": "µM"}
    ]},
    {"smiles": "CC[C@H](C)[C@@H]1NC(=O)[C@H](CCC(N)=O)NC(=O)[C@H](CC(C)C)NC(=O)[C@H](Cc2c[nH]c3ccccc23)NC(=O)[C@H]([C@@H](C)O)NC(=O)[C@H](CC(=O)O)NC(=O)CNC(=O)[C@H](CC(C)C)NC(=O)[C@H](C)NC(=O)[C@H](CCCCN)NC(=O)[C@H](C)NC(=O)[C@H](Cc2ccccc2)NC(=O)[C@H](Cc2c[nH]cn2)NC(=O)[C@H](CC(=O)O)NC(=O)[C@@H](NC(=O)[C@@H](NC(=O)[C@H](CO)NC(C)=O)C(C)C)CC(=O)NCC[C@@H](C(=O)N[C@@H](C)C(=O)N[C@@H](C)C(N)=O)NC1=O", "note": "[4A] (Ac-SVDDHFAKALGDTWLQI[Dab]AA-NH2; lactam 3-18)", "values": [
      {"measurement": "Kd", "value": 11, "unit": "µM"}
    ]}
  ]
}
